Measurements as given in patent US9989532B2, “Methods and compositions for detecting coagulation inhibitors” (The University of North Carolina at Chapel Hill, priority 2013, dated 2018).

Experiments:
[1] = cited from earlier work; for time to peak plasma concentration: after oral ingestion
thrombin = target: T1, thrombin (Homo sapiens, UniProt P00734); assay: substrate cleavage by thrombin in presence of sample; assay type: biochemical; details: substance in sample; substrate methoxycarbonyl-D-cyclohexylalanyl-glycyl-arginine-para-nitroaniline
T1 construct: Thrombin (factor IIa) was purchased from Haematologic Technologies; purchased Haematologic Technologies
Procedure: (§1) Substrate cleavage in the presence of test sample is measured for all four test conditions.
(§2) There are any number of substrates for thrombin and factor Xa and other proteases as described herein that can be used in the methods of this invention. In some embodiments, the substrate is a chromogenic substrate, which can be a para-nitroanalide synthetic substrate. Non-limiting examples of a chromogenic substrate of this invention include tosyl-glycyl-prolyl-arginine para-nitroanilide, H-D-cyclohexylglycyl-alanyl-arginine para-nitroanilide, H-beta-alanyl-glycyl-arginine para-nitroanilide, H-D-cyclohexylalanyl-alanyl-arginine para-nitroanilide, H-D-phenylalanyl-pipecolyl-arginine para-nitroanilide, H-D-(carbobenzoyl)lysyl-prolyl-arginine para-nitroanilide, H-beta-alanyl-glycyl-arginine 7-amino-4-methylcoumarin, H-D-cyclohexylglycyl-alanyl-arginine 7-amino-4-methylcoumarin, H-D-(carbobenzoyl)lysyl-prolyl-arginine 7-amino-4-methylcoumarin, methoxycarbonyl-D-cyclohexylalanyl-glycyl-arginine para-nitroanilide, methoxycarbonyl-D-cyclohexylglycyl-glycyl-arginine para-nitroanilide, benzoyloxycarbonyl-D-arginyl-glycyl-arginine para-nitroanilide, benzoyl-isoleucyl-glutamyl-glycyl-arginine para-nitroanilide, methylsulfonyl-D-cyclohexylalanyl-glycyl-arginine 7-amino-4-methylcoumarin, and methoxycarbonyl-D-cyclohexylalanyl-glycyl-arginine 7-amino-4-methylcoumarin.
(§3) Thrombin (factor IIa) was purchased from Haematologic Technologies. Factor Xa was purchased from Enzyme Research Labs.

a2M-Xa [2] = target: T2, a2M-Xa (Homo sapiens, UniProt P00742); assay: substrate cleavage by a2M-Xa (factor Xa caged in alpha-2-macroglobulin); assay type: biochemical; parameters: Factor Xa was purchased from Enzyme Research Labs; host or cells: no expression host: complex formed in vitro from purchased factor Xa and a2M purified from human plasma, then purified on heparin Sepharose and Q-Sepharose; details: for cleavage of the substrate, (d) a2M-Xa: substance in sample, substrate methoxycarbonyl-D-cyclohexylalanyl-glycyl-arginine-para-nitroaniline
Procedure: as §1, §2
(§4) 0.5 mM of para-nitroanilide synthetic substrate (Pefachrome FXa) was added and the rate of substrate cleavage determined by appearance of yellow color characteristic of the cleaved substrate. Pefachrome FXa is also effective as a substrate for thrombin.
(§5) The rates of substrate cleavage were converted to concentrations using measured Km and kcat values determined as previously described (Joost et al. “Inhibition of human blood coagulation factor Xa by alpha-2-macroglobulin” Biochemistry 26:5932-5937 (1987) doi: 10.1021/bi00392a053) (FIGS. 1-5).

[3] = cited from earlier work
a2M-thrombin (a2M-IIa) = target: T3, a2M-thrombin (a2M-IIa) (Homo sapiens, UniProt P00734); assay: substrate cleavage by a2M-IIa (thrombin caged in alpha-2-macroglobulin); assay type: biochemical; details: for cleavage of the substrate, (b) a2M-thrombin (a2M-IIa): substance in sample, substrate methoxycarbonyl-D-cyclohexylalanyl-glycyl-arginine-para-nitroaniline
T3 construct: Thrombin (factor IIa) was purchased from Haematologic Technologies; host or cells: no expression host: complex formed in vitro from purchased thrombin and a2M purified from human plasma, then purified on Q-Sepharose
Procedure: as §1, §2, §4
Purified a2M-IIa was eluted from the column with 1M sodium chloride in 20 mM HEPES (pH 7.4).
as §5

factor Xa = target: T4, factor Xa (Homo sapiens, UniProt P00742); assay: substrate cleavage by factor Xa in presence of sample; assay type: biochemical; details: substance in sample; substrate methoxycarbonyl-D-cyclohexylalanyl-glycyl-arginine-para-nitroaniline
T4 construct: Factor Xa was purchased from Enzyme Research Labs; purchased Enzyme Research Labs
T4 sequence (P00742 235-488 limits assumed): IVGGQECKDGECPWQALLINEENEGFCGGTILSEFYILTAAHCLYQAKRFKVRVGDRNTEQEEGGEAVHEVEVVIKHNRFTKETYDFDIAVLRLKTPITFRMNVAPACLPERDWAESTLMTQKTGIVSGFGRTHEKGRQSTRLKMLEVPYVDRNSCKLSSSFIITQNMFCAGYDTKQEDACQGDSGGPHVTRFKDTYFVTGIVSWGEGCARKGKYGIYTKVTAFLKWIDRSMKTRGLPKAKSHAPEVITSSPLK
T4 sequence (P00742 41-179 limits assumed): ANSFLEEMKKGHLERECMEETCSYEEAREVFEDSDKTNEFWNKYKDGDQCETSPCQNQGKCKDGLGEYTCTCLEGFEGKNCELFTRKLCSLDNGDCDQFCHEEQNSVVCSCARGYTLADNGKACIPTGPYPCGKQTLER
Procedure: as §1, §2, §3

a2M-IIa = a2M-IIa substrate cleavage test on plasma of fed mice
Procedure: (§6) Mice were fed Xarelto or Pradaxa or regular chow. Plasma from the animals was analyzed for the presence of dabigatran (active metabolite of Pradaxa) or rivaroxaban (active component of Xarelto). […] 0.5 mM of para-nitroanilide synthetic substrate (Pefachrome FXa) was added and substrate cleavage was determined by appearance of yellow color characteristic of the cleaved substrate.

[4] = assumed, based on estimates from Gnoth et al. and Weinz et al.; cited from earlier work
a2M-Xa [5] = target: T2, a2M-Xa; details: substance in plasma of mice fed Pradaxa or Xarelto
Procedure: as §6

mice = assay: saphenous vein injury bleeding time in mice; assay type: in vivo; details: FIG. 6, normal mouse
Procedure: Mice were administered 160 μg/kg rivaroxaban designed to produce a free plasma level of 36 ng/mL (75 nM), assuming 1.6% recovery based on estimates from Gnoth et al. (“in vitro and in vivo P-glycoprotein transport characteristics of rivaroxaban” J Pharmacol Exp Thor. 338:372-380 (2011) doi: 10.1124/jpet.111.180240) and Weinz et al. (“Pharmacokinetics of BAY 59-7939—an oral, direct Factor Xa inhibitor—in rats and dogs” Xenobiotica 35:891-910 (2005) doi: 10.1080/00498250500250493) and accounting for 95-98% blood cell and plasma protein binding (Weinz et al. “Pharmacokinetics of BAY 59-7939—an oral, direct Factor Xa inhibitor—in rats and dogs” Xenobiotica 35:891-910 (2005))

Row | cleavage of the substrate, (a) Thrombin (thrombin) | cleavage of the substrate, (d) a2M-Xa (a2M-Xa [2]) | cleavage of the substrate, (b) a2M-thrombin (a2M-IIa) (a2M-thrombin (a2M-IIa)) | cleavage of the substrate, (c) Factor Xa (factor Xa) | Compound | oral bioavailability [1] | time to peak plasma concentration [1] | also measured
1 | Cleavage | Cleavage | Cleavage | No | low molecular weight heparin | – | – | –
2 | No | Cleavage | Cleavage | No | heparin | – | – | –

More lines, now with the values behind:

Row | Compound | cleavage of the substrate, (a) Thrombin (thrombin) | cleavage of the substrate, (d) a2M-Xa (a2M-Xa [2]) | cleavage of the substrate, (b) a2M-thrombin (a2M-IIa) (a2M-thrombin (a2M-IIa)) | cleavage of the substrate, (c) Factor Xa (factor Xa) | oral bioavailability [1] | time to peak plasma concentration [1] | also measured
3 | COc1ccc(-n2nc(C(N)=O)c3c2C(=O)N(c2ccc(N4CCCCC4=O)cc2)CC3)cc1 [apixaban] | – | – | – | – | more than 50% | – | eliminated by the kidneys ([1]; in vivo): 25%; metabolism ([1]; in vivo): metabolized in part by CYP3A4
4 | O=C(NC[C@H]1CN(c2ccc(N3CCOCC3=O)cc2)C(=O)O1)c1ccc(Cl)s1 [rivaroxaban] | Cleavage | No | Cleavage | No | more than 80% | approximately 3 hours | food effect on absorption from the gastrointestinal tract ([1]; in vivo): food does not affect absorption; excreted by the kidneys ([1]; orally ingested): Sixty-six; terminal half-life ([1]; steady state, patients >75 years old): up to 12 hours; effect on substrate cleavage by purified a2M-Xa (a2M-Xa [2]; FIG. 2, buffer pH 7.4, 5 minutes incubation, 0.5 mM Pefachrome FXa): blocked substrate cleavage; blood cell and plasma protein binding [3]: 95-98%; effect on substrate cleavage by purified a2M-IIa (a2M-thrombin (a2M-IIa); FIG. 1, buffer pH 7.4, 5 minutes incubation, 0.5 mM Pefachrome FXa): did not block substrate cleavage; effect on a2M-IIa cleavage of substrate (a2M-IIa; substance in plasma of mice fed Pradaxa or Xarelto): had no effect; recovery [4]: 1.6%; effect on a2M-Xa cleavage of substrate (a2M-Xa [5]): blocked; time for saphenous vein injury to stop bleeding (mice; 160 μg/kg rivaroxaban alone): ~2 min
5 | CC(=O)CC(c1ccccc1)c1c(O)c2ccccc2oc1=O (stereo not drawn) [Warfarin] | Cleavage | Cleavage | Cleavage | Cleavage | – | – | –
6 | [H]/N=C(/N)c1ccc(NCc2nc3cc(C(=O)N(CCC(=O)O)c4ccccn4)ccc3n2C)cc1 [dabigatran] | – | – | – | – | 7.2% | approximately 1.5 hours | peak plasma level ([1]; healthy human volunteers): 150 ng/mL; route of excretion ([1]; oral treatment): predominantly excreted in the feces; bound to plasma proteins [3]: 35%; presence of Dabigatran in plasma (a2M-IIa; mice fed Pradaxa, animals 7-12): yes; presence of Dabigatran in plasma (a2M-IIa; mice fed Xarelto, animals 1-6): no; time for saphenous vein injury to stop bleeding (mice; 7 μg/kg dabigatran alone): more than 2 minutes
